Patent publication US6706709B2, “Indolinone derivatives as protein kinase/phosphatase inhibitors” (Sugen, Inc., priority 2000, dated 2004)

What was measured:
GST-Flk1 = GST-Flk1 (UniProt P35918); assay: GST-FLK-1 bioassay (bio flkGST); type: biochemical
Summary of the method: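 ELISA with Sf9-expressed GST-Flk1cd (5 ng/well) phosphorylating plate-coated poly(Glu,Tyr) 4:1 in Hepes pH 7.5 with MnCl2 and ATP (2 μM as 4× stock), 15 min at room temperature; EDTA stop. Phosphotyrosine detected with PY99-HRP and ABTS at 410 nm.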

EGF Receptor = target: T1, EGF Receptor (Homo sapiens, UniProt P00533); assay: bio EGF (EGF Receptor ELISA); type: biochemical
T1 construct: expressed in transfected cells; host or cells: NIH 3T3/C7 (mouse fibroblasts engineered to express human EGF-R)
Summary of the method: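 Cells engineered to express human EGFR, seeded in 0.5% serum for ~40 h, then exposed to drug (stock diluted to 1:200 final, 1% DMSO) before 5 min EGF stimulation at 25 nM final. Lysates captured on anti-EGFR-coated plates, and phosphotyrosine detected by anti-pTyr/HRP ELISA at 410 nm. Percent inhibition calculated relative to control wells after negative-control subtraction.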

T1 sequence (P00533 25-1210): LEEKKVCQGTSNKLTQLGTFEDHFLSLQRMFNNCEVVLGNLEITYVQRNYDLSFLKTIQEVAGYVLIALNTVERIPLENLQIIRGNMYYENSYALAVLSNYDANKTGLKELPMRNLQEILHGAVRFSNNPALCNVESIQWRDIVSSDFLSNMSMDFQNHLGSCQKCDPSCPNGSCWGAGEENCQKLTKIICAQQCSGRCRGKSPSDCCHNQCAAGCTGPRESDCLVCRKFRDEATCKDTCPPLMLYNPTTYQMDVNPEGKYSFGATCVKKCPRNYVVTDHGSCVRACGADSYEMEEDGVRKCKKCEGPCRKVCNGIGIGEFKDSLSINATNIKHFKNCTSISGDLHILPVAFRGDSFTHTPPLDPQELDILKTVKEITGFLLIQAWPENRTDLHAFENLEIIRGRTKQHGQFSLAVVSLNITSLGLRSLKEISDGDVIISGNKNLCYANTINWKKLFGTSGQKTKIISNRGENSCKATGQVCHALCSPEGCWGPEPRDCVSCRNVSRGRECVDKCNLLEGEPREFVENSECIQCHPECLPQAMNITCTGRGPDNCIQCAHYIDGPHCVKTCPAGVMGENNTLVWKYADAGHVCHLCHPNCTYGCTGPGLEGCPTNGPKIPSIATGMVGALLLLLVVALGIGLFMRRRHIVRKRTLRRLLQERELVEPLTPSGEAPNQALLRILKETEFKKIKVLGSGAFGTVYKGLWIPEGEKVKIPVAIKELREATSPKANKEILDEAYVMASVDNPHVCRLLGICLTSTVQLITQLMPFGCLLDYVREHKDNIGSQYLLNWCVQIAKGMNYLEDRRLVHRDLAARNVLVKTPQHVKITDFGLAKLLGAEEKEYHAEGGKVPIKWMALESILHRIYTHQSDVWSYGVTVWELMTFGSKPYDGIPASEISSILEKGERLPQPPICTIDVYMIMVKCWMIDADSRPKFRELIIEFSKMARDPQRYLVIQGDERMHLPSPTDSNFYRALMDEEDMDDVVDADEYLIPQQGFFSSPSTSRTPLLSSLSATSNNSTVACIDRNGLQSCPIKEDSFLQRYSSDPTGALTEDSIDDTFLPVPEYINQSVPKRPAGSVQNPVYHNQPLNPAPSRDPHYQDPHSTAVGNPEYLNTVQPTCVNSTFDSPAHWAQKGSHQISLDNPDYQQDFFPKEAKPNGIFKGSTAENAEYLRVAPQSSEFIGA

Structure (SMILES) | IC50 (GST-Flk1) [µM] | IC50 (EGF Receptor) [µM]
CNS(=O)(=O)c1ccc2c(c1)C(=Cc1c[nH]c3ccccc13)C(=O)N2 [IN-068, 3-(1H-indol-3-ylmethylene)-2-oxo-2,3-dihydro-1H-indole-5-sulfonic acid methylamide] | > 20 | > 100
Cc1[nH]c2ccccc2c1C=C1C(=O)Nc2ccc(S(=O)(=O)N(C)C)cc21 [IN-073, 3-(2-methyl-1H-indol-3-ylmethylene)-2-oxo-2,3-dihydro-1H-indole-5-sulfonic acid dimethylamide] | > 20 | > 100
COc1ccc(-c2ccc3c(c2)NC(=O)C3=Cc2cc3cc(OCCN4CCCC4)ccc3[nH]2)cc1 [IN-026, 6-(4-methoxy-phenyl)-3-[5-(2-pyrrolidin-1-yl-ethoxy)-1H-indol-2-ylmethylene]-1,3-dihydro-indol-2-one] | 0.76 | > 20
O=C1Nc2ccc(S(=O)(=O)N3CCc4ccccc43)cc2C1=Cc1cc2cc(OCCN3CCOCC3)ccc2[nH]1 [IN-058, 5-(2,3-dihydro-indole-1-sulfonyl)-3-[5-(2-morpholin-4-yl-ethoxy)-1H-indol-2-ylmethylene]-1,3-dihydro-indol-2-one] | 8.49 | > 20
COc1cccc(-c2ccc3c(c2)NC(=O)C3=Cc2cc3cc(OCCN4CCCC4)ccc3[nH]2)c1 [IN-027, 6-(3-methoxy-phenyl)-3-[5-(2-pyrrolidin-1-yl-ethoxy)-1H-indol-2-ylmethylene]-1,3-dihydro-indol-2-one] | 2.01 | > 20
O=C1Nc2ccc(S(=O)(=O)Nc3cccnc3)cc2C1=Cc1cc2cc(OCCN3CCOCC3)ccc2[nH]1 [IN-057, 3-[5-(2-morpholin-4-yl-ethoxy)-1H-indol-2-ylmethylene]-2-oxo-2,3-dihydro-1H-indole-5-sulfonic acid pyridin-3-ylamide] | > 20 | > 20
O=C1Nc2cc(C(=O)O)ccc2C1=Cc1cc2cc(OCCN3CCOCC3)ccc2[nH]1 [IN-031, 3-[5-(2-morpholin-4-yl-ethoxy)-1H-indol-2-ylmethylene]-2-oxo-2,3-dihydro-1H-indole-6-carboxylic acid] | 0.53 | > 20
O=C1Nc2ccc(S(=O)(=O)Nc3cccc(Cl)c3)cc2C1=Cc1cc2cc(OCCN3CCOCC3)ccc2[nH]1 [IN-059, 3-[5-(2-morpholin-4-yl-ethoxy)-1H-indol-2-ylmethylene]-2-oxo-2,3-dihydro-1H-indole-5-sulfonic acid (3-chloro-phenyl)-amide] | 0.63 | > 20
O=C1Nc2cc(-c3ccc(F)cc3)ccc2C1=Cc1cc2cc(OCCN3CCCC3)ccc2[nH]1 [IN-029, 6-(4-fluoro-phenyl)-3-[5-(2-pyrrolidin-1-yl-ethoxy)-1H-indol-2-ylmethylene]-1,3-dihydro-indol-2-one] | 0.76 | > 20
O=C1Nc2ccc(-c3ccccc3)cc2C1=Cc1cc2cc(OCCN3CCOCC3)ccc2[nH]1 [IN-032, 3-[5-(2-morpholin-4-yl-ethoxy)-1H-indol-2-ylmethylene]-5-phenyl-1,3-dihydro-indol-2-one] | 1.47 | > 20
NS(=O)(=O)c1ccc2c(c1)C(=Cc1ccc3[nH]ccc3c1)C(=O)N2 [IN-067, 3-(1H-indol-5-ylmethylene)-2-oxo-2,3-dihydro-1H-indole-5-sulfonic acid amide] | 3.99 | > 100
O=C1Nc2ccc(S(=O)(=O)N3CCc4ccccc43)cc2C1=Cc1cc2cc(OCCN3CCCC3)ccc2[nH]1 [IN-046, 5-(2,3-dihydro-indole-1-sulfonyl)-3-[5-(2-pyrrolidin-1-yl-ethoxy)-1H-indol-2-ylmethylene]-1,3-dihydro-indol-2-one] | 1.05 | 1.23
O=C1Nc2ccc(S(=O)(=O)N3CCc4ccccc4C3)cc2C1=Cc1cc2cc(OCCN3CCOCC3)ccc2[nH]1 [IN-063, 5-(3,4-dihydro-1H-isoquinoline-2-sulfonyl)-3-[5-(2-morpholin-4-yl-ethoxy)-1H-indol-2-ylmethylene]-1,3-dihydro-indol-2-one] | 14.3 | > 20
O=C1Nc2ccc(S(=O)(=O)N3CCc4cc(Br)ccc43)cc2C1=Cc1cc2cc(OCCN3CCOCC3)ccc2[nH]1 [IN-064, 5-(5-bromo-2,3-dihydro-indole-1-sulfonyl)-3-[5-(2-morpholin-4-yl-ethoxy)-1H-indol-2-ylmethylene]-1,3-dihydro-indol-2-one] | 17.8 | > 20
CN(C)S(=O)(=O)c1ccc2c(c1)C(=Cc1c[nH]c3ccccc13)C(=O)N2 [IN-072, 3-(1H-indol-3-ylmethylene)-2-oxo-2,3-dihydro-1H-indole-5-sulfonic acid dimethylamide] | > 20 | > 100
COc1ccccc1-c1ccc2c(c1)NC(=O)C2=Cc1cc2cc(OCCN3CCCC3)ccc2[nH]1 [IN-028, 6-(2-methoxy-phenyl)-3-[5-(2-pyrrolidin-1-yl-ethoxy)-1H-indol-2-ylmethylene]-1,3-dihydro-indol-2-one] | 0.66 | 6.06
COc1ccccc1-c1ccc2c(c1)NC(=O)C2=Cc1cc2cc(OCCN3CCOCC3)ccc2[nH]1 [IN-037, 6-(2-methoxy-phenyl)-3-[5-(2-morpholin-4-yl-ethoxy)-1H-indol-2-ylmethylene]-1,3-dihydro-indol-2-one] | 4.38 | > 20
O=C1Nc2ccc(S(=O)(=O)N3CCCc4ccccc43)cc2C1=Cc1cc2cc(OCCN3CCCC3)ccc2[nH]1 [IN-050, 5-(3,4-dihydro-2H-quinoline-1-sulfonyl)-3-[5-(2-pyrrolidin-1-yl-ethoxy)-1H-indol-2-ylmethylene]-1,3-dihydro-indol-2-one] | 0.71 | 2.4
O=C1Nc2cc(-c3ccccc3)ccc2C1=Cc1cc2cc(OCCN3CCOCC3)ccc2[nH]1 [IN-009, 3-[5-(2-morpholin-4-yl-ethoxy)-1H-indol-2-ylmethylene]-6-phenyl-1,3-dihydro-indol-2-one] | 9.42 | > 100
CC(C)NS(=O)(=O)c1ccc2c(c1)C(=Cc1cc3cc(OCCN4CCOCC4)ccc3[nH]1)C(=O)N2 [IN-055, 3-[5-(2-morpholin-4-yl-ethoxy)-1H-indol-2-ylmethylene]-2-oxo-2,3-dihydro-1H-indole-5-sulfonic acid isopropylamide] | 1.5 | 3.5

These reach a lower IC50 (GST-Flk1). Values come first.

IC50 (GST-Flk1) [µM] | IC50 (EGF Receptor) [µM] | Structure (SMILES)
0.05 | > 10 | CCN(CC)CCOc1ccc2[nH]c(C=C3C(=O)Nc4ccccc43)cc2c1 [IN-016, 3-[5-(2-diethylamino-ethoxy)-1H-indol-2-ylmethylene]-1,3-dihydro-indol-2-one]
0.39 | 4.46 | O=C1Nc2ccc(S(=O)(=O)Nc3ccc(Cl)cc3F)cc2C1=Cc1cc2cc(OCCN3CCOCC3)ccc2[nH]1 [IN-061, 3-[5-(2-morpholin-4-yl-ethoxy)-1H-indol-2-ylmethylene]-2-oxo-2,3-dihydro-1H-indole-5-sulfonic acid (4-chloro-2-fluoro-phenyl)-amide]
< 0.009 | > 20 | O=C1Nc2ccc(C(=O)O)cc2C1=Cc1cc2cc(OCCN3CCOCC3)ccc2[nH]1 [IN-030, 3-[5-(2-morpholin-4-yl-ethoxy)-1H-indol-2-ylmethylene]-2-oxo-2,3-dihydro-1H-indole-5-carboxylic acid]
0.37 | 3.52 | O=C1Nc2ccc(S(=O)(=O)N3CCc4ccccc4C3)cc2C1=Cc1cc2cc(OCCN3CCCC3)ccc2[nH]1 [IN-051, 5-(3,4-dihydro-1H-isoquinoline-2-sulfonyl)-3-[5-(2-pyrrolidin-1-yl-ethoxy)-1H-indol-2-ylmethylene]-1,3-dihydro-indol-2-one]
0.27 | 4.35 | CC(C)NS(=O)(=O)c1ccc2c(c1)C(=Cc1cc3cc(OCCN4CCCC4)ccc3[nH]1)C(=O)N2 [IN-043, 2-oxo-3-[5-(2-pyrrolidin-1-yl-ethoxy)-1H-indol-2-ylmethylene]-2,3-dihydro-1H-indole-5-sulfonic acid isopropylamide]
0.03 | 2.87 | CCN(CC)CCCc1ccc2[nH]c(C=C3C(=O)Nc4ccc(Br)cc43)cc2c1 [IN-002, 5-bromo-3-[5-(3-diethylamino-propyl)-1H-indol-2-ylmethylene]-1,3-dihydro-indol-2-one]
< 0.01 | > 20 | O=C1Nc2cccc(CCO)c2C1=Cc1cc2cc(OCCN3CCCC3)ccc2[nH]1 [IN-024, 4-(2-hydroxy-ethyl)-3-[5-(2-pyrrolidin-1-yl-ethoxy)-1H-indol-2-ylmethylene]-1,3-dihydro-indol-2-one]
0.39 | 0.87 | O=C1Nc2ccc(S(=O)(=O)Nc3cccc(Cl)c3)cc2C1=Cc1cc2cc(OCCN3CCCC3)ccc2[nH]1 [IN-047, 2-oxo-3-[5-(2-pyrrolidin-1-yl-ethoxy)-1H-indol-2-ylmethylene]-2,3-dihydro-1H-indole-5-sulfonic acid (3-chloro-phenyl)-amide]
0.12 | 8.02 | O=C1Nc2ccc(S(=O)(=O)Nc3cccnc3)cc2C1=Cc1cc2cc(OCCN3CCCC3)ccc2[nH]1 [IN-045, 2-oxo-3-[5-(2-pyrrolidin-1-yl-ethoxy)-1H-indol-2-ylmethylene]-2,3-dihydro-1H-indole-5-sulfonic acid pyridin-3-ylamide]
< 0.009 | 8.2 | O=C1Nc2cccc(CCO)c2C1=Cc1cc2cc(OCCN3CCOCC3)ccc2[nH]1 [IN-033, 4-(2-hydroxy-ethyl)-3-[5-(2-morpholin-4-yl-ethoxy)-1H-indol-2-ylmethylene]-1,3-dihydro-indol-2-one]
0.22 | 1.97 | O=C1Nc2ccc(Br)cc2C1=Cc1cc2cc(OCCN3CCOCC3)ccc2[nH]1 [IN-008, 5-bromo-3-[5-(2-morpholin-4-yl-ethoxy)-1H-indol-2-ylmethylene]-1,3-dihydro-indol-2-one]
